Test results as given in patent US9550739B2, “Molecules having certain pesticidal utilities, and intermediates, compositions, and processes related thereto” (priority 2014, dated 2017).

Legend:
Type in all cases: in vivo
[1] = test system: Cabbage Looper (Trichoplusia ni, TRIPNI) ("CL"); assay: Bioassays on Cabbage Looper (CL), 128-well diet tray assay; conditions: for mortality at 50 µg/cm2: Trichoplusia ni, 168 h, read-out: CL % Control (or Mortality) rating
Description: (§1) Certain molecules disclosed in this document were tested against BAW and CEW using procedures described in the following examples. In the reporting of the results, the “BAW & CL Rating Table” was used (See Table Section).
Bioassays on CL were conducted using a 128-well diet tray assay. one to five second instar CL larvae were placed in each well (3 mL) of the diet tray that had been previously filled with 1 mL of artificial diet to which 50 μg/cm^2 of the test compound (dissolved in 50 μL of 90:10 acetone-water mixture) had been applied (to each of eight wells) and then allowed to dry. Trays were covered with a clear self-adhesive cover and held at 25° C., 14:10 light-dark for five to seven days. Percent mortality was recorded for the larvae in each well; activity in the eight wells was then averaged. The results are indicated in the table entitled “Table ABC: Biological Results” (See Table Section).

[2] = test system: Yellow Fever Mosquito (Aedes aegypti, AEDSAE) ("YFM"); conditions: about 1 day-old larvae, 4000 ppm master solution diluted, 3 days, room temperature
Description: Certain molecules disclosed in this document were tested against YFM using procedures described in the following paragraph. In the reporting of the results, the “YFM Rating Table” was used (See Table Section).
Master plates containing 400 μg of a molecule dissolved in 100 μL of dimethyl sulfoxide (DMSO) (equivalent to a 4000 ppm solution) are used. A master plate of assembled molecules contains 15 μL per well. To this plate, 135 μL of a 90:10 water:acetone mixture is added to each well. A robot (Biomek® NXP Laboratory Automation Workstation) is programmed to dispense 15 μL aspirations from the master plate into an empty 96-well shallow plate (“daughter” plate). There are 6 reps (“daughter” plates) created per master. The created daughter plates are then immediately infested with YFM larvae.
The day before plates are to be treated, mosquito eggs are placed in Millipore water containing liver powder to begin hatching (4 g. into 400 mL). After the daughter plates are created using the robot, they are infested with 220 μL of the liver powder/larval mosquito mixture (about 1 day-old larvae). After plates are infested with mosquito larvae, a non-evaporative lid is used to cover the plate to reduce drying. Plates are held at room temperature for 3 days prior to grading. After 3 days, each well is observed and scored based on mortality.

[3] = test system: Beet Armyworm (Spodoptera exigua, LAPHEG) ("BAW"); assay: Bioassays on Beet Armyworm (BAW), 128-well diet tray assay; conditions: second instar BAW larvae, 50 μg/cm^2 on artificial diet, five to seven days, 25° C.; for mortality at 50 µg/cm2: Spodoptera exigua, 168 h, read-out: BAW % Control (or Mortality) rating
Description: as §1
Bioassays on BAW were conducted using a 128-well diet tray assay. one to five second instar BAW larvae were placed in each well (3 mL) of the diet tray that had been previously filled with 1 mL of artificial diet to which 50 μg/cm^2 of the test compound (dissolved in 50 μL of 90:10 acetone-water mixture) had been applied (to each of eight wells) and then allowed to dry. Trays were covered with a clear self-adhesive cover and held at 25° C., 14:10 light-dark for five to seven days. Percent mortality was recorded for the larvae in each well; activity in the eight wells was then averaged. The results are indicated in the table entitled “Table ABC: Biological Results” (See Table Section).

For `Cc1ccccc1-c1cccc(C(=O)Nc2ccc(-c3ncn(-c4ccc(OC(F)(F)F)cc4)n3)cc2)c1` [F17, 2′-Methyl-N-(4-(1-(4-(trifluoromethoxy)phenyl)-1H-1,2,4-triazol-3-yl)phenyl)-[1,1′-biphenyl]-3-carboxamide], the mortality at 50 µg/cm2 [1] was 50 to 100%, the “YFM % Control (or Mortality) rating” value [2] was “D (No activity noticed in this bioassay)” and the mortality at 50 µg/cm2 [3] was 50 to 100%.

For `CN(C)c1ccccc1-c1cccc(C(=O)NCCc2ccc(-c3ncn(-c4ccc(OC(F)(F)F)cc4)n3)cc2)c1` [F52, 2′-(Dimethylamino)-N-(4-(1-(4-(trifluoromethoxy)phenyl)-1H-1,2,4-triazol-3-yl)phenethyl)-[1,1′-biphenyl]-3-carboxamide], the mortality at 50 µg/cm2 [1] was 50 to 100%, the “YFM % Control (or Mortality) rating” value [2] was “A (80-100)” and the mortality at 50 µg/cm2 [3] was 50 to 100%.

With `O=C(Nc1ccc(-c2ncn(-c3ccc(OC(F)(F)F)cc3)n2)cc1)c1cccc(-c2ccccc2)n1` [F27, 6-Phenyl-N-(4-(1-(4-(trifluoromethoxy)phenyl)-1H-1,2,4-triazol-3-yl)phenyl)picolinamide] the mortality at 50 µg/cm2 [1] was 0%, the “YFM % Control (or Mortality) rating” value [2] was “D (No activity noticed in this bioassay)” and the mortality at 50 µg/cm2 [3] was 0 to 50%.

`Cc1ccc(-c2cccc(C(=O)Nc3ccc(-c4ncn(-c5ccc(OC(F)(F)F)cc5)n4)cc3)n2)c(C)c1` [F2, 6-(2,4-Dimethylphenyl)-N-(4-(1-(4-(trifluoromethoxy)phenyl)-1H-1,2,4-triazol-3-yl)phenyl)picolinamide] was tested, and the mortality at 50 µg/cm2 [1] was 0%, the “YFM % Control (or Mortality) rating” value [2] was “D (No activity noticed in this bioassay)” and the mortality at 50 µg/cm2 [3] was 0 to 50%.

For `COc1ccccc1-c1cc(C(=O)N(C(C)=O)c2ccc(-c3ncn(-c4ccc(OC(F)(F)F)cc4)n3)cc2)ccc1F` [F67, N-acetyl-6-fluoro-2′-methoxy-N-(4-(1-(4-(trifluoromethoxy)phenyl)-1H-1,2,4-triazol-3-yl)phenyl)-[1,1′-biphenyl]-3-carboxamide], the mortality at 50 µg/cm2 [1] was 50 to 100%, the “YFM % Control (or Mortality) rating” value [2] was “A (80-100)” and the mortality at 50 µg/cm2 [3] was 50 to 100%.

In the case of `COc1ccc(-c2cccc(C(=O)Nc3ccc(-c4ncn(-c5ccc(OC(F)(F)F)cc5)n4)cc3)c2)c(C)c1` [F49, 4′-Methoxy-2′-methyl-N-(4-(1-(4-(trifluoromethoxy)phenyl)-1H-1,2,4-triazol-3-yl)phenyl)-[1,1′-biphenyl]-3-carboxamide], the mortality at 50 µg/cm2 [1] is reported as 50 to 100%, the “YFM % Control (or Mortality) rating” value [2] is reported as “B (More than 0-Less than 80)” and the mortality at 50 µg/cm2 [3] is reported as 50 to 100%.

With `O=C(Nc1ccc(-c2ncn(-c3ccc(OC(F)(F)F)cc3)n2)cc1)c1cc(-c2ccccc2)ccc1Cl` [F15, 4-Chloro-N-(4-(1-(4-(trifluoromethoxy)phenyl)-1H-1,2,4-triazol-3-yl)phenyl)-[1,1′-biphenyl]-3-carboxamide] the mortality at 50 µg/cm2 [1] was 0%, the “YFM % Control (or Mortality) rating” value [2] was “D (No activity noticed in this bioassay)” and the mortality at 50 µg/cm2 [3] was 0%.

For `O=C(Nc1ccc(-c2ncn(-c3ccc(OC(F)(F)C(F)(F)F)cc3)n2)cc1)c1cccc(-c2ccccc2)n1` [F47, N-(4-(1-(4-(Perfluoroethoxy)phenyl)-1H-1,2,4-triazol-3-yl)phenyl)-6-phenylpicolinamide], the mortality at 50 µg/cm2 [1] was 0%, the “YFM % Control (or Mortality) rating” value [2] was “D (No activity noticed in this bioassay)” and the mortality at 50 µg/cm2 [3] was 0%.

With `COc1ccccc1-c1cccc(C(=O)N(C)c2ccc(-c3ncn(-c4ccc(OC(F)(F)F)cc4)n3)cc2)c1` [F19, 2′-methoxy-N-methyl-N-(4-(1-(4-(trifluoromethoxy)phenyl)-1H-1,2,4-triazol-3-yl)phenyl)-[1,1′-biphenyl]-3-carboxamide] the mortality at 50 µg/cm2 [1] was 50 to 100%, the “YFM % Control (or Mortality) rating” value [2] was “A (80-100)” and the mortality at 50 µg/cm2 [3] was 50 to 100%.

In the case of `CCN(C(=O)c1ccc(F)c(-c2ccccc2OC)c1)c1ccc(-c2ncn(-c3ccc(OC(F)(F)F)cc3)n2)cc1` [F64, N-Ethyl-6-fluoro-2′-methoxy-N-(4-(1-(4-(trifluoromethoxy)phenyl)-1H-1,2,4-triazol-3-yl)phenyl)-[1,1′-biphenyl]-3-carboxamide], the mortality at 50 µg/cm2 [1] is reported as 50 to 100%, the “YFM % Control (or Mortality) rating” value [2] is reported as “D (No activity noticed in this bioassay)” and the mortality at 50 µg/cm2 [3] is reported as 50 to 100%.

In the case of “6-Methoxy-N-(4-(1-(4-(trifluoromethoxy)phenyl)-1H-1,2,4-triazol-3-yl)phenethyl)-[1,1′-biphenyl]-3-carboxamide [F56]”, the “CL % Control (or Mortality) rating” value ([1]; second instar CL larvae, 50 μg/cm^2 on artificial diet, five to seven days, 25° C.) is reported as “A (50-100)”, the “YFM % Control (or Mortality) rating” value [2] is reported as “A (80-100)” and the “BAW % Control (or Mortality) rating” value [3] is reported as “A (50-100)”.

With `COc1ccccc1-c1cccc(C(=O)Nc2ccc(-c3ncn(-c4ccc(OC(F)(F)C(F)(F)F)cc4)n3)cc2)c1` [F26, 2′-Methoxy-N-(4-(1-(4-(perfluoroethoxy)phenyl)-1H-1,2,4-triazol-3-yl)phenyl)-[1,1′-biphenyl]-3-carboxamide] the mortality at 50 µg/cm2 [1] was 50 to 100%, the “YFM % Control (or Mortality) rating” value [2] was “A (80-100)” and the mortality at 50 µg/cm2 [3] was 50 to 100%.

`Cc1cccc(C)c1-c1cccc(C(=S)Nc2ccc(-c3ncn(-c4ccc(OC(F)(F)F)cc4)n3)cc2)c1` [F46, 2′,6′-dimethyl-N-(4-(1-(4-(trifluoromethoxy)phenyl)-1H-1,2,4-triazol-3-yl)phenyl)-[1,1′-biphenyl]-3-carbothioamide] was tested, and the mortality at 50 µg/cm2 [1] was 0%, the “YFM % Control (or Mortality) rating” value [2] was “D (No activity noticed in this bioassay)” and the mortality at 50 µg/cm2 [3] was 0 to 50%.

In the case of `O=C(Nc1ccc(-c2ncn(-c3ccc(OC(F)(F)F)cc3)n2)cc1)c1cc(Cl)cc(-c2ccccc2)c1` [F43, 5-Chloro-N-(4-(1-(4-(trifluoromethoxy)phenyl)-1H-1,2,4-triazol-3-yl)phenyl)-[1,1′-biphenyl]-3-carboxamide], the mortality at 50 µg/cm2 [1] is reported as 50 to 100%, the “YFM % Control (or Mortality) rating” value [2] is reported as “D (No activity noticed in this bioassay)” and the mortality at 50 µg/cm2 [3] is reported as 50 to 100%.

`COc1ccccc1-c1cccc(C(=S)Nc2ccc(-c3ncn(-c4ccc(OC(F)(F)C(F)(F)F)cc4)n3)cc2)c1` [F23, 2′-methoxy-N-(4-(1-(4-(perfluoroethoxy)phenyl)-1H-1,2,4-triazol-3-yl)phenyl)-[1,1′-biphenyl]-3-carbothioamide] was tested, and the mortality at 50 µg/cm2 [1] was 50 to 100%, the “YFM % Control (or Mortality) rating” value [2] was “A (80-100)” and the mortality at 50 µg/cm2 [3] was 50 to 100%.

For `O=C(Nc1ccc(-c2ncn(-c3ccc(OC(F)(F)C(F)(F)F)cc3)n2)cc1)c1cccc(-c2ccccc2OC(F)(F)F)c1` [F36, N-(4-(1-(4-(Perfluoroethoxy)phenyl)-1H-1,2,4-triazol-3-yl)phenyl)-2′-(trifluoromethoxy)-[1,1′-biphenyl]-3-carboxamide], the mortality at 50 µg/cm2 [1] was 50 to 100%, the “YFM % Control (or Mortality) rating” value [2] was “D (No activity noticed in this bioassay)” and the mortality at 50 µg/cm2 [3] was 0%.

For `O=C(Nc1ccc(-c2ncn(-c3ccc(OC(F)(F)F)cc3)n2)cc1)c1cccc(-c2ccccc2Cl)c1` [F30, 2′-Chloro-N-(4-(1-(4-(trifluoromethoxy)phenyl)-1H-1,2,4-triazol-3-yl)phenyl)-[1,1′-biphenyl]-3-carboxamide], the mortality at 50 µg/cm2 [1] was 50 to 100%, the “YFM % Control (or Mortality) rating” value [2] was “D (No activity noticed in this bioassay)” and the mortality at 50 µg/cm2 [3] was 50 to 100%.

`COc1ccccc1-c1cc(C(=O)Nc2ccc(-c3ncn(-c4ccc(C(F)(F)F)cc4)n3)cc2)ccc1F` [F20, 6-fluoro-2′-methoxy-N-(4-(1-(4-(trifluoromethyl)phenyl)-1H-1,2,4-triazol-3-yl)phenyl)-[1,1′-biphenyl]-3-carboxamide] was tested, and the mortality at 50 µg/cm2 [1] was 50 to 100%, the “YFM % Control (or Mortality) rating” value [2] was “A (80-100)” and the mortality at 50 µg/cm2 [3] was 50 to 100%.

In the case of `CCCN(C(=O)c1ccc(F)c(-c2ccccc2OC)c1)c1ccc(-c2ncn(-c3ccc(OC(F)(F)F)cc3)n2)cc1` [F65, 6-Fluoro-2′-methoxy-N-propyl-N-(4-(1-(4-(trifluoromethoxy)phenyl)-1H-1,2,4-triazol-3-yl)phenyl)-[1,1′-biphenyl]-3-carboxamide], the mortality at 50 µg/cm2 [1] is reported as 50 to 100%, the “YFM % Control (or Mortality) rating” value [2] is reported as “D (No activity noticed in this bioassay)” and the mortality at 50 µg/cm2 [3] is reported as 50 to 100%.
